Test results reported in patent US10329289B2, “6,7-dihydro-5H-pyrrolo[3,4-B]pyridin-5-one allosteric modulators of the M4 muscarinic acetylcholine receptor” (Merck Sharp & Dohme Corp., priority 2015, dated 2019).

target: T1, human M4 muscarinic acetylcholine receptor (Homo sapiens, UniProt P08173); assay: human FLIPR-based M4 PAM assay (Ca2+ mobilization, CHO-K1 cells with human M4 receptor and Gαqi5); type: cell-based; settings: acetylcholine at 20% of maximum response, read-out: M4 PAM IP
T1 construct: expressed in transfected cells; host or cells: CHO-K1
T1 sequence (P08173 1-479): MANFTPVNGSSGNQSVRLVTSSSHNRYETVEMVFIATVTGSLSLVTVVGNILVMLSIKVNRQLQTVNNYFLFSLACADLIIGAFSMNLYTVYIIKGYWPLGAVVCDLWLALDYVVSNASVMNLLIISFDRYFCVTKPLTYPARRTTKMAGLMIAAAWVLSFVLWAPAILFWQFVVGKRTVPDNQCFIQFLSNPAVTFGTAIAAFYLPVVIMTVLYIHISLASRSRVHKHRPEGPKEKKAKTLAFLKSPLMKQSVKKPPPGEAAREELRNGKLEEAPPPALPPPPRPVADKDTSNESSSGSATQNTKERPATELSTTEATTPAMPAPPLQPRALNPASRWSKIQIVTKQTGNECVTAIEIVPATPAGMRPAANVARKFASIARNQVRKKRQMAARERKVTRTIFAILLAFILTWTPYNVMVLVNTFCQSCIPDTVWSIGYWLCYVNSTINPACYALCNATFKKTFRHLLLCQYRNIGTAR
Description: In a typical experiment the M4 muscarinic acetylcholine receptor modulating activity of the compounds of the present invention was determined in accordance with the following experimental method. CHO-K1 cells stably transfected with human M4 receptor and chimeric G-protein Gαqi5 (Coward P, et al., Analytical Biochemistry, 270:242-248 (1999)) are thawed from liquid N2 storage, resuspended in growth medium, plated in black, clear bottom 384 well plates, and incubated 16-20 hours at 37° C., 5% CO2. On the day of assay, growth medium is removed, the cells are washed 2 times with wash buffer, and cells are incubated in dye loading buffer at 37° C., 5% CO2 for ˜1 hour. […] Next, 10 uL of acetylcholine is added (final concentration calculated so as to achieve 20% of the maximum acetycholine response), and the fluorescence reading is continued for 3.5 min. In some cases, a third addition of acetylcholine (final concentration calculated to achieve 70% of the maximal acetylcholine response) is performed. The resulting dose response curves are fit to a 4 parameter logistic equation and the final result is determined as the inflection point (IP) of the curve
CHO-K1 cells stably transfected with human M4 receptor and chimeric G-protein Gαqi5 are thawed from liquid N2 storage, resuspended in growth medium, plated in black, clear bottom 384 well plates, and incubated 16-20 hours at 37° C., 5% CO2.
On the day of assay, growth medium is removed, the cells are washed 2 times with wash buffer, and cells are incubated in dye loading buffer at 37° C., 5% CO2 for ˜1 h. […] Next, 10 uL of acetylcholine is added (final concentration calculated so as to achieve 20% of the maximum acetycholine response), and the fluorescence reading is continued for 3.5 min. In some cases, a third addition of acetylcholine (final concentration calculated to achieve 70% of the maximal acetylcholine response) is performed.

Compound	EC50 [µM]
COc1ccc(OC2CCN(c3nc4c(cc3C)C(=O)N(C)[C@@H]4CO)CC2)cn1 (single isomer, unassigned) [Example 273B]	0.023
COc1ccc(OC2CCN(c3nc4c(cc3C)C(=O)N(C)[C@@]4(C)CO)CC2)cn1 (single isomer, unassigned) [Example 287A]	3.87
COc1ccc(OC2CCN(c3nc4c(cc3C)C(=O)N(C)[C@]4(C)CO)CC2)cn1 (single isomer, unassigned) [Example 287B]	0.214
Cc1cc2c(nc1N1CCC(Oc3ccc4c(c3)C[C@@H](O)C4)CC1)CNC2=O (single isomer, unassigned) [Example 324A]	0.022
Cc1cc2c(nc1N1CCC(Oc3ccc4c(c3)C[C@H](O)C4)CC1)CNC2=O (single isomer, unassigned) [Example 324B]	0.028
Cc1cc2c(nc1N1CCC(Oc3cnc4c(c3)CC[C@@H]4O)CC1)CNC2=O (single isomer, unassigned) [Example 324C]	1.14
Cc1cc2c(nc1N1CCC(Oc3cnc4c(c3)CC[C@H]4O)CC1)CNC2=O (single isomer, unassigned) [Example 324D]	0.682
Cc1c(N2CCC(OC[C@@]3(C)CC3(F)F)CC2)nc2c(c1C)C(=O)NC2 (single isomer, unassigned) [Example 329A]	0.047
Cc1c(N2CCC(Oc3ccc4c(c3)COC4)CC2)nc2c(c1C)C(=O)N(C)[C@@H]2CO (single isomer, unassigned) [Example 337A]	0.02
Cc1c(N2CCC(Oc3ccc4c(c3)COC4)CC2)nc2c(c1C)C(=O)N(C)[C@H]2CO (single isomer, unassigned) [Example 337B]	0.867
Cc1c(N2CCC(Oc3ccc4c(c3)COCC4)CC2)nc2c(c1C)C(=O)N(C)[C@@H]2CO (single isomer, unassigned) [Example 337C]	0.042
Cc1c(N2CCC(Oc3ccc4c(c3)COCC4)CC2)nc2c(c1C)C(=O)N(C)[C@H]2CO (single isomer, unassigned) [Example 337D]	0.613
CCc1cc2c(nc1N1CC[C@@H](OCC3(C)CC3)C(F)(F)C1)CNC2=O (single isomer, unassigned) [Example 374A]	0.416
CCc1cc2c(nc1N1CC[C@H](OCC3(C)CC3)C(F)(F)C1)CNC2=O (single isomer, unassigned) [Example 374B]	0.045
COCCOc1ccc(O[C@H]2CCN(c3nc4c(cc3C)C(=O)NC4)C[C@H]2F)cn1 (stereo in doubt) [Example 61, 2-((3R,4S)-3-fluoro-4-((6-(2-methoxyethoxy)pyridin-3-yl)oxy)piperidin-1-yl)-3-methyl-6,7-dihydro-5H-pyrrolo[3,4-b]pyridin-5-one]	0.135
COc1ccc(OC2CCN(c3nc4c(cc3C)C(=O)NC4)CC2)cn1 [Example 1, 2-(4-((6-methoxypyridin-3-yl)oxy)piperidin-1-yl)-3-methyl-6,7-dihydro-5H-pyrrolo[3,4-b]pyridin-5-one]	0.027
Cc1cc2c(nc1N1CCC(Oc3cccc(C#N)c3)CC1)CNC2=O [Example 3, 3-((1-(3-methyl-5-oxo-6,7-dihydro-5H-pyrrolo[3,4-b]pyridin-2-yl)piperidin-4-yl)oxy)benzonitrile]	0.025
Cc1cc2c(nc1N1CCC(Oc3ccc4c(cnn4C)c3)CC1)CNC2=O [Example 4, 3-methyl-2-(4-((1-methyl-1H-indazol-5-yl)oxy)piperidin-1-yl)-6,7-dihydro-5H-pyrrolo[3,4-b]pyridin-5-one]	0.049

Compound	EC50 [µM]
Cc1cc2c(nc1N1CCC(OC(F)F)CC1)CNC2=O [Example 4A, 2-(4-(difluoromethoxy)piperidin-1-yl)-3-methyl-6,7-dihydro-5H-pyrrolo[3,4-b]pyridin-5-one]	2.77
Cc1cc2c(nc1N1CCC(Oc3ccccc3)CC1)CNC2=O [Example 5, 3-methyl-2-(4-phenoxypiperidin-1-yl)-6,7-dihydro-5H-pyrrolo[3,4-b]pyridin-5-one]	0.021
CCc1cc2c(nc1N1CC[C@@H](Oc3ccc4c(cnn4C)c3)[C@@H](F)C1)CNC2=O [Example 5A, 3-ethyl-2-((3S,4R)-3-fluoro-4-((1-methyl-1H-indazol-5-yl)oxy)piperidin-1-yl)-6,7-dihydro-5H-pyrrolo[3,4-b]pyridin-5-one]	0.121
CCc1cc2c(nc1N1CC[C@H](OCC3(C)CC3)[C@@H](F)C1)CNC2=O [Example 6A, 3-ethyl-2-((3S,4S)-3-fluoro-4-((1-methylcyclopropyl)methoxy)piperidin-1-yl)-6,7-dihydro-5H-pyrrolo[3,4-b]pyridin-5-one]	0.15
Cc1cc2c(nc1N1CC[C@@H](Oc3ccc4[nH]ncc4c3)[C@@H](F)C1)CNC2=O [Example 8, 2-((3S,4R)-4-((1H-indazol-5-yl)oxy)-3-fluoropiperidin-1-yl)-3-methyl-6,7-dihydro-5H-pyrrolo[3,4-b]pyridin-5-one]	0.014
Cc1cc2c(nc1N1CCC(OC[C@@]3(C)CC3(F)F)CC1)CNC2=O [Example 8A, (R)-2-(4-((2,2-difluoro-1-methylcyclopropyl)methoxy)piperidin-1-yl)-3-methyl-6,7-dihydro-5H-pyrrolo[3,4-b]pyridin-5-one]	0.087
Cc1cc2c(nc1N1CCC(OC[C@]3(C)CC3(F)F)CC1)CNC2=O [Example 8B, (S)-2-(4-((2,2-difluoro-1-methylcyclopropyl)methoxy)piperidin-1-yl)-3-methyl-6,7-dihydro-5H-pyrrolo[3,4-b]pyridin-5-one]	0.501
Cc1cc2c(nc1N1CCC(OCC3CC3)CC1)CNC2=O [Example 9, 2-(4-(cyclopropylmethoxy)piperidin-1-yl)-3-methyl-6,7-dihydro-5H-pyrrolo[3,4-b]pyridin-5-one]	0.083
Cc1cc2c(nc1N1CCC(Oc3ccc4c(c3)C(=O)N(C3CC3)C4)CC1)CNC2=O [Example 10, 2-(4-((2-cyclopropyl-3-oxoisoindolin-5-yl)oxy)piperidin-1-yl)-3-methyl-6,7-dihydro-5H-pyrrolo[3,4-b]pyridin-5-one]	0.179
Cc1cc2c(nc1N1CCC(Oc3cccc(C#N)c3)CC1)CN(C)C2=O [Example 11, 3-((1-(3,6-dimethyl-5-oxo-6,7-dihydro-5H-pyrrolo[3,4-b]pyridin-2-yl)piperidin-4-yl)oxy)benzonitrile]	0.038
Cc1cc2c(nc1N1CCC(Oc3ccc4[nH]ncc4c3)CC1)CN(C)C2=O [Example 12, 2-(4-((1H-indazol-5-yl)oxy)piperidin-1-yl)-3,6-dimethyl-6,7-dihydro-5H-pyrrolo[3,4-b]pyridin-5-one]	0.016
Cc1cc2c(nc1N1CCC(Oc3cccc(C#N)c3)CC1)C(C)N(C)C2=O (centres unmarked) [Example 13, 3-((1-(3,6,7-trimethyl-5-oxo-6,7-dihydro-5H-pyrrolo[3,4-b]pyridin-2-yl)piperidin-4-yl)oxy)benzonitrile]	0.174
Cc1cc2c(nc1N1CCC(Oc3ccc4[nH]ncc4c3)CC1)C(C)N(C)C2=O (centres unmarked) [Example 14, 2-(4-((1H-indazol-5-yl)oxy)piperidin-1-yl)-3,6,7-trimethyl-6,7-dihydro-5H-pyrrolo[3,4-b]pyridin-5-one]	0.052
Cc1cc2c(nc1N1CCC(Oc3cccc(C#N)c3)CC1)C(C)(C)N(C)C2=O [Example 15, 3-((1-(3,6,7,7-tetramethyl-5-oxo-6,7-dihydro-5H-pyrrolo[3,4-b]pyridin-2-yl)piperidin-4-yl)oxy)benzonitrile]	1.99
COc1ccc(OC2CCN(c3nc4c(cc3C)C(=O)N(C)C4C)CC2)cn1 (centres unmarked) [Example 16, 2-(4-((6-methoxypyridin-3-yl)oxy)piperidin-1-yl)-3,6,7-trimethyl-6,7-dihydro-5H-pyrrolo[3,4-b]pyridin-5-one]	0.081
COc1ccc(OC2CCN(c3nc4c(cc3C)C(=O)N(C)C4(C)C)CC2)cn1 [Example 17, 2-(4-((6-methoxypyridin-3-yl)oxy)piperidin-1-yl)-3,6,7,7-tetramethyl-6,7-dihydro-5H-pyrrolo[3,4-b]pyridin-5-one]	1.17
COc1ccc(OC2CCN(c3nc4c(cc3C)C(=O)N(C)C4)CC2)cn1 [Example 18, 2-(4-((6-methoxypyridin-3-yl)oxy)piperidin-1-yl)-3,6-dimethyl-6,7-dihydro-5H-pyrrolo[3,4-b]pyridin-5-one]	0.036
